In ChEMBL document CHEMBL4387706, “Discovery of Novel Spiroindoline Derivatives as Selective Tankyrase Inhibitors” (J Med Chem, 2019):
pIC50: −log10 of the molar value. Converted amounts (≈) assume the structure as drawn. The source made the active and inactive calls. The calls are words filed in the database; no cut-off is given here.

Key:
[1] = Cmax in ICR mouse at 50 mg/kg, ip; assay type: ADME, organism-based; set-up: dose 50 mg/kg, route intraperitoneal; details: in vivo
[2] = biological target: T1, Tankyrase 1/2 (Homo sapiens, UniProt Q9H2K2+O95271)
T1 sequence (Q9H2K2 whole entry): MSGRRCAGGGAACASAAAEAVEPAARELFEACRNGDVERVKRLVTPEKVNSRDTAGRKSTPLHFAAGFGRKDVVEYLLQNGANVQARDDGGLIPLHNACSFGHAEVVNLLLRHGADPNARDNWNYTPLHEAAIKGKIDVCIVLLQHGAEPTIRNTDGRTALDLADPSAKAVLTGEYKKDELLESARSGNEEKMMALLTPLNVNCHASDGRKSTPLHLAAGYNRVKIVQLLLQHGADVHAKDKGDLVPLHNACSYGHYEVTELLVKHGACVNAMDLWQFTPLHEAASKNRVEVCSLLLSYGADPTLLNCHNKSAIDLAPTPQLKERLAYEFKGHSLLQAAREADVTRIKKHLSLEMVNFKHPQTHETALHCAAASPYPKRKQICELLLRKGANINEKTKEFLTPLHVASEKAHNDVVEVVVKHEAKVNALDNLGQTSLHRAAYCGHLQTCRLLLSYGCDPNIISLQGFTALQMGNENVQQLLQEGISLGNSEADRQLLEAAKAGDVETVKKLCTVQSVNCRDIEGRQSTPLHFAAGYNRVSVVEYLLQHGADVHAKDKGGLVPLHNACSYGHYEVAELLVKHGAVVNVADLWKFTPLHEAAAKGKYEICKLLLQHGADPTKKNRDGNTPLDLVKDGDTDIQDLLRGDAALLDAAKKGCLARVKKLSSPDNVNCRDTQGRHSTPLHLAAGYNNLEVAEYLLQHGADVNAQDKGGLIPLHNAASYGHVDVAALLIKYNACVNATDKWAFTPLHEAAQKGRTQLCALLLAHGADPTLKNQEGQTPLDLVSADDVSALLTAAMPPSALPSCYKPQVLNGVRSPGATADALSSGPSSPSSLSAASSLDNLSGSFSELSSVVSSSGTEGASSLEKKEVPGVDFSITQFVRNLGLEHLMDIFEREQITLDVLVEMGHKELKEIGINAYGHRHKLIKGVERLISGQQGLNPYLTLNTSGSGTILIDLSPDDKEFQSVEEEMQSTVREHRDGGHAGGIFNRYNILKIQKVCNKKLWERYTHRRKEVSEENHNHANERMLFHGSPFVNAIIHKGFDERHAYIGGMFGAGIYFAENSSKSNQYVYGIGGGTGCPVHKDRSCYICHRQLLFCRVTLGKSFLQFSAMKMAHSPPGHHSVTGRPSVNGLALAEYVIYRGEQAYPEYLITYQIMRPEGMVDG
T1 sequence (O95271 whole entry): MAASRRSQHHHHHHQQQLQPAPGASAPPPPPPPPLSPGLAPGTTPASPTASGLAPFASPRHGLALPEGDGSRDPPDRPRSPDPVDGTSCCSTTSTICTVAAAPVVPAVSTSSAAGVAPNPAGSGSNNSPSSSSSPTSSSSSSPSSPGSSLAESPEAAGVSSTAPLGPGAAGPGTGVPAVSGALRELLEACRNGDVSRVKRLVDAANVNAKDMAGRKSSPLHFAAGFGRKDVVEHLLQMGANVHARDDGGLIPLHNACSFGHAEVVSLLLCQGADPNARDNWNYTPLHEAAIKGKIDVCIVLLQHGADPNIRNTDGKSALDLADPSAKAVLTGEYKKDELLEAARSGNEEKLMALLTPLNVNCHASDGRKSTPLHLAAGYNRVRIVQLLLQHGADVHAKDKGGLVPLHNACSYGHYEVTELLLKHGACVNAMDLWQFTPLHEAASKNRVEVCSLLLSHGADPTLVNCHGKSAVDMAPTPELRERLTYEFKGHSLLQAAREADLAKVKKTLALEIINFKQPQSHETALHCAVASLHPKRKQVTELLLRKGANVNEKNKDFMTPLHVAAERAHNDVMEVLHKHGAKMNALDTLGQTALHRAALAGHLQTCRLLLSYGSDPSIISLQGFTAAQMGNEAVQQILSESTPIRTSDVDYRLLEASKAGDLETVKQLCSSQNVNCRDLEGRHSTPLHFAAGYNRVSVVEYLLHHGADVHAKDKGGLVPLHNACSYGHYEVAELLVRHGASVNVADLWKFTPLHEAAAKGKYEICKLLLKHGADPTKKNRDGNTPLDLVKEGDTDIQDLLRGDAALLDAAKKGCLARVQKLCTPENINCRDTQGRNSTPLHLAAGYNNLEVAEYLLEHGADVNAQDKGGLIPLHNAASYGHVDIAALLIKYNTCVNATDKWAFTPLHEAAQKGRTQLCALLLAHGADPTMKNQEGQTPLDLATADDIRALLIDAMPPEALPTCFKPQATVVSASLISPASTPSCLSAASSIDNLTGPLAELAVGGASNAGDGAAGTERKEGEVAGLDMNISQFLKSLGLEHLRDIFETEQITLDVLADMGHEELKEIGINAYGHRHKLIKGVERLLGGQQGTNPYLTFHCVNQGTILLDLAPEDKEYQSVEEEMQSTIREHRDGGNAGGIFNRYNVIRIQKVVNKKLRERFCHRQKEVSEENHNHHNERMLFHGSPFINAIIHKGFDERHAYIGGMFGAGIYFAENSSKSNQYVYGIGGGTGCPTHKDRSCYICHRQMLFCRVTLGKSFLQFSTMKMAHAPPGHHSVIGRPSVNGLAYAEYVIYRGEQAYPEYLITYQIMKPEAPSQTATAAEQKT
Description: Inhibition of TNKS/TNKS2 (unknown origin) expressed in human DLD1 cells assessed as reduction in Wnt-signaling measured after 24 hrs by TCF-luciferase reporter gene assay

[3] = system: COLO 320DM; test: Antiproliferative activity against human COLO320DM cells assessed inhibition of cell growth measured after 5 days by MTT assay; assay type: functional; details: 120 h
[4] = biological target: T2, Poly [ADP-ribose] polymerase tankyrase-1 (Homo sapiens, UniProt O95271)
T2 sequence (O95271 whole entry): T1 sequence (O95271 whole entry)
Description: Inhibition of recombinant human N-terminal TEV cleavage site-fused/FLAG-poly his-tagged TNKS SAM-PARP domain (1024 to 1327 residues) expressed in Escherichia coli assessed as reduction in auto-PARylation preincubated for 10 mins followed by biotinylated-NAD+ addition and measured after 45 mins by ELISA

[5] = Protein binding in human serum assessed as unbound fraction at 1 uM measured after 24 hrs by LC-MS/MS analysis; assay type: ADME, cell-free
[6] = system: RKO; test: Antiproliferative activity against human RKO cells assessed reduction in cell viability at 0.3 uM measured after 5 days by MTT assay; assay type: functional, cell-based
[7] = physchem; details: phosphate buffer, pH 7.4
[8] = in vitro; details: human, liver microsomes
Description: Stability in human liver microsomes assessed as parent compound remaining at 1 uM measured after 30 mins in presence of NADPH by LC-MS/MS analysis

[9] = biological target: T3, Poly [ADP-ribose] polymerase tankyrase-2 (Homo sapiens, UniProt Q9H2K2)
T3 sequence (Q9H2K2 whole entry): T1 sequence (Q9H2K2 whole entry)
Description: Inhibition of recombinant human N-terminal TEV cleavage site-fused/FLAG-poly his-tagged TNKS2 SAM-PARP domain (613 to 1166 residues) expressed in Escherichia coli assessed as reduction in auto-PARylation preincubated for 10 mins followed by biotinylated-NAD+ addition and measured after 45 mins by ELISA

[10] = biological target: Poly [ADP-ribose] polymerase 1 (Homo sapiens, UniProt P09874)
Description: Inhibition of recombinant human PARP1 expressed in Escherichia coli assessed as reduction in auto-PARylation using histone as substrate measured after 45 mins in presence of biotinylated-NAD+ by ELISA

[11] = system: RKO; test: Antiproliferative activity against human RKO cells assessed inhibition of cell growth measured after 5 days by MTT assay; assay type: functional; details: 120 h
[12] = AUC (infinity) in ICR mouse at 50 mg/kg, ip; assay type: ADME, organism-based; set-up: dose 50 mg/kg, route intraperitoneal, time infinity; details: in vivo
[13] = Half life in ICR mouse at 50 mg/kg, ip; assay type: ADME, organism-based; details: in vivo
[14] = Protein binding in mouse serum assessed as unbound fraction at 1 uM measured after 24 hrs by LC-MS/MS analysis; assay type: ADME, cell-free
[15] = biological target: Tankyrase 1/2 (Homo sapiens) (UniProt Q9H2K2+O95271); test: Inhibition of TNKS/TNKS2 in human COLO320DM cells assessed as upregulation of AXIN2 expression at 0.1 uM measured after 16 hrs by Western blot analysis relative to G007-LK; assay type: cell-based
[16] = system: COLO 320DM; test: cells; details: Homo sapiens, 96 h
Description: Antiproliferative activity against human COLO320DM cells assessed as inhibition of cell growth measured after 4 days by CellTiter-Glo assay

[17] = in vitro; details: mouse, liver microsomes
Description: Stability in mouse liver microsomes assessed as parent compound remaining at 1 uM measured after 30 mins in presence of NADPH by LC-MS/MS analysis

[18] = Permeability of the compound by PAMPA; assay type: ADME; details: read-out: permeability

Poly [ADP-ribose] polymerase 1, sequence (P09874 whole entry): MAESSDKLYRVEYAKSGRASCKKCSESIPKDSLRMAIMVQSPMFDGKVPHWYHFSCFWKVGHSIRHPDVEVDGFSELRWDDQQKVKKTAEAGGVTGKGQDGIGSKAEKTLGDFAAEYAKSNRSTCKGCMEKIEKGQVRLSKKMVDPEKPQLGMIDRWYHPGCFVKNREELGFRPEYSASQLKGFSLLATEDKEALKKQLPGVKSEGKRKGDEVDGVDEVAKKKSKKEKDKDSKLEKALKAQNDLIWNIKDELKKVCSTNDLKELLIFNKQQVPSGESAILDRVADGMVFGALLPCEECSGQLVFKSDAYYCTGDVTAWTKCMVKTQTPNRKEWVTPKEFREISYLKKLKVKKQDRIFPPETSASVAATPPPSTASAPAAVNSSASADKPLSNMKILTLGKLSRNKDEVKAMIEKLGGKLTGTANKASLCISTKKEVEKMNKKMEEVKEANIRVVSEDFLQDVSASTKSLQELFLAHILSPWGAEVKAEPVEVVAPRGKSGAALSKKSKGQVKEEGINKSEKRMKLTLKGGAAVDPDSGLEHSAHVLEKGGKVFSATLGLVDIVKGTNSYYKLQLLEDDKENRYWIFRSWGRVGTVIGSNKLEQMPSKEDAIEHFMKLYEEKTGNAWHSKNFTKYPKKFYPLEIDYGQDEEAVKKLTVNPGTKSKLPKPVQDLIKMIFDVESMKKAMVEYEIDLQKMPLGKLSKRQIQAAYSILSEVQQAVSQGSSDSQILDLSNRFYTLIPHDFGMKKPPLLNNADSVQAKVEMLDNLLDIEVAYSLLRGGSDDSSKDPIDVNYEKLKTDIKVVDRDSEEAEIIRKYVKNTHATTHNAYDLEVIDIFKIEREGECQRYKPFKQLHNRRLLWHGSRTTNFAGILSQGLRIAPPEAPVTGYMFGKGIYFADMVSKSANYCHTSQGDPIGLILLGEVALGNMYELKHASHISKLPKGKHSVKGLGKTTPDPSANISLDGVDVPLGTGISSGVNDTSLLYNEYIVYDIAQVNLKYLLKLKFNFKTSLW

Row | Compound | Cmax [1] | IC50 [2] | GI50 [3] | pIC50 [4] | fraction unbound at 24 h, 1 µM [5] | Activity [6] | solubility at 1 h, 200 µM [7] | remaining at 0.5 h, 1 µM [8] | pIC50 [9] | pIC50 [10] | GI50 [11] | AUC(0-inf) [12] | half-life [13] | fraction unbound at 24 h, 1 µM [14] | fold change (FC) [15] | GI50 [16] | remaining at 0.5 h, 1 µM [17] | Papp [18] | Fu ([5]; 24 h, 1 µM)
1 | O=c1[nH]c(N2CCC3(CC2)CN(CCO)c2cccc(Cl)c23)nc2c1CCCC2 | 75.6 µM | 52.9 nM | 300 nM | 7.78 | 0.009 | Active | 2.5 µg/mL (≈ 6.03 µM) | 6.1% | 7.77 | < 4.70 | > 10000 nM | 667 µM·h | 4.8 h | 0.01 | 4.86 | 1500 nM | 1.1% | – | –
2 | O=C1N(CCO)c2cc(Cl)cc(Cl)c2C12CCN(c1nc3c(c(=O)[nH]1)CCCC3)CC2 | – | 19.8 nM | 450 nM | 8.05 | – | – | 55.9 µg/mL (≈ 121 µM) | – | 8.02 | < 4.70 | 2610 nM | – | – | – | 8.03 | 2600 nM | – | 43 ×10⁻⁶ cm/s | –
3 | Oc1nc(-c2ccc(C(F)(F)F)cc2)nc2c1CSCC2 | – | – | – | – | – | – | 0.4 µg/mL (≈ 1.28 µM) | 78.4% | – | – | – | – | – | 0.086 | – | 17000 nM | 0% | 3.24 ×10⁻⁶ cm/s | 0.6%
4 | O=c1[nH]c(N2CCC3(CC2)CN(CCO)c2cc(Cl)cc(Cl)c23)nc2c1CCCC2 | – | 119 nM | 4650 nM | 7.74 | – | – | 5.2 µg/mL (≈ 11.6 µM) | – | 7.79 | < 4.70 | 40 nM | – | – | – | 4.03 | 2900 nM | – | – | –
5 | O=C1N(CCO)c2cccc(F)c2C12CCN(c1nc3c(c(=O)[nH]1)CCCC3)CC2 | – | 36.5 nM | 190 nM | 8.17 | – | – | 80.1 µg/mL (≈ 194 µM) | – | 8.09 | < 4.70 | 2030 nM | – | – | – | 4.1 | 1800 nM | – | 3.6 ×10⁻⁶ cm/s | –
6 | O=c1[nH]c(N2CCC3(CC2)CN(CCO)c2ccccc23)nc2c1CCCC2 | – | 362 nM | 1770 nM | 7.31 | – | – | > 76.1 µg/mL | – | 7.57 | < 4.70 | 220 nM | – | – | – | 0.98 | 3900 nM | – | 17.4 ×10⁻⁶ cm/s | –
7 | O=C1N(CCO)c2ccccc2C12CCN(c1nc3c(c(=O)[nH]1)CCCC3)CC2 | – | 918 nM | 2670 nM | 7.72 | – | – | 78.7 µg/mL (≈ 200 µM) | – | 7.59 | < 4.70 | 3400 nM | – | – | – | 0.98 | 12700 nM | – | 2.9 ×10⁻⁶ cm/s | –
8 | O=c1[nH]c(N2CCC3(CC2)CN(CCO)c2cccc(F)c23)nc2c1CCCC2 | – | 83.9 nM | 260 nM | 8.04 | – | – | 74.6 µg/mL (≈ 187 µM) | – | 7.93 | < 4.70 | 90 nM | – | – | – | 3.63 | 1400 nM | – | 7.6 ×10⁻⁶ cm/s | –
9 | COc1ccccc1C1CCN(c2nc3c(c(=O)[nH]2)CCCC3)CC1 | – | 531 nM | – | 7.18 | – | – | 1 µg/mL (≈ 2.95 µM) | 62.1% | 7.17 | < 4.70 | – | – | – | – | – | 4600 nM | 0% | – | –
10 | O=c1[nH]c(N2CCC3(CC2)CNc2ccccc23)nc2c1CCCC2 | – | 352 nM | – | 7.55 | – | – | 1.6 µg/mL (≈ 4.76 µM) | 77.9% | 7.68 | < 4.70 | – | – | – | – | – | 13100 nM | 34.7% | – | –
